Experimental data as given in ChEMBL document CHEMBL5104090, “Recent advances in the medicinal chemistry of carbonic anhydrase inhibitors” (Eur J Med Chem, 2021).
One block for each compound: values may come before it.

Columns and labels:
Carbonic anhydrase 9 [1] = molecular target: T1, Carbonic anhydrase 9 (Homo sapiens, UniProt Q16790)
Carbonic anhydrase 12 [2] = molecular target: T2, Carbonic anhydrase 12 (Homo sapiens, UniProt O43570)
Carbonic anhydrase 4 [3] = molecular target: T3, Carbonic anhydrase 4 (Homo sapiens, UniProt P22748)
T3 sequence (P22748 whole entry): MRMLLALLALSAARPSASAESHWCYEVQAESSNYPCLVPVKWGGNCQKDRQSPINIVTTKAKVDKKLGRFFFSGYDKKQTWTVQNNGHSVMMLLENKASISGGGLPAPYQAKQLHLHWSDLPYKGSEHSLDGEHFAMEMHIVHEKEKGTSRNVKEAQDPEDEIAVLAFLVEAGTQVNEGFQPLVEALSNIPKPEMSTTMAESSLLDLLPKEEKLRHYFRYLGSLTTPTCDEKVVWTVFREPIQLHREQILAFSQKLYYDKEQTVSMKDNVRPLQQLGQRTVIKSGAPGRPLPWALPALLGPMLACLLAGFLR

Carbonic anhydrase 1 [4] = molecular target: T4, Carbonic anhydrase 1 (Homo sapiens, UniProt P00915)
T4 sequence (P00915 whole entry): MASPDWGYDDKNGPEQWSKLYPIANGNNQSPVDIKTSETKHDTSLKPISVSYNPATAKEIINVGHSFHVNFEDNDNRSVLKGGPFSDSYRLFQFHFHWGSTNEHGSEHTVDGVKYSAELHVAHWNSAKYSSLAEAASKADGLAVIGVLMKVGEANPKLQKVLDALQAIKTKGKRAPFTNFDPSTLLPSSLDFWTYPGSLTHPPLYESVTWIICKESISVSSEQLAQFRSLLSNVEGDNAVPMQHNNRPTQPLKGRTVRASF

Carbonic anhydrase 2 [5] = molecular target: T5, Carbonic anhydrase 2 (Homo sapiens, UniProt P00918)
Carbonic anhydrase 4 [6] = molecular target: T3, Carbonic anhydrase 4; remark: listed apart in the source
Carbonic anhydrase 9 [7] = molecular target: T1, Carbonic anhydrase 9; remark: listed apart in the source
Carbonic anhydrase 1 [8] = molecular target: T4, Carbonic anhydrase 1; remark: listed apart in the source
Carbonic anhydrase 2 [9] = molecular target: T5, Carbonic anhydrase 2; remark: listed apart in the source
Carbonic anhydrase 9 [10] = molecular target: T1, Carbonic anhydrase 9; remark: listed apart in the source
Carbonic anhydrase 12 [11] = molecular target: T2, Carbonic anhydrase 12; remark: listed apart in the source
Carbonic anhydrase 1 [12] = molecular target: T4, Carbonic anhydrase 1; remark: listed apart in the source
Carbonic anhydrase 2 [13] = molecular target: T5, Carbonic anhydrase 2; remark: listed apart in the source
Carbonic anhydrase 7 = Carbonic anhydrase 7 (Homo sapiens, UniProt P43166)
Carbonic anhydrase 7, sequence (P43166 whole entry): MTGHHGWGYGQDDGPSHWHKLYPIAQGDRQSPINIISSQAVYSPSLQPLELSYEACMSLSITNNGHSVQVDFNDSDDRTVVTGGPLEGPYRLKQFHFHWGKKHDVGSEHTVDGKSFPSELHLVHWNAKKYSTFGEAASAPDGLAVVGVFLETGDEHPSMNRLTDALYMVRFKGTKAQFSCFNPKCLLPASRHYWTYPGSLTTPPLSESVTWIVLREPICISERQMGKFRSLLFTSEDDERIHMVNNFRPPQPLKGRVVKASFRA

T2 sequence (O43570 whole entry): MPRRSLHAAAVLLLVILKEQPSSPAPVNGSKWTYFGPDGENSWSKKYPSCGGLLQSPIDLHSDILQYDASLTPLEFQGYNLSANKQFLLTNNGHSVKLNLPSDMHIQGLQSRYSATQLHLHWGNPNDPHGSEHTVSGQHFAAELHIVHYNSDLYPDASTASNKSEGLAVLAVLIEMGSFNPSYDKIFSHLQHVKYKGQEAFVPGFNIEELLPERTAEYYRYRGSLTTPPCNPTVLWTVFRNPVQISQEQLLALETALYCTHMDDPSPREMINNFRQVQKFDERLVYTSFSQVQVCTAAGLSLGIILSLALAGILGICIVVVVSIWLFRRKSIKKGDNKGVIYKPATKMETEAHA

Structure (SMILES): COc1cc(/C=N/NC(=O)c2ccc(S(N)(=O)=O)cc2)ccc1O
Ki (Carbonic anhydrase 9 [1]): 8.5 nM | Ki (Carbonic anhydrase 12 [2]): 9.7 nM

Structure (SMILES): NS(=O)(=O)c1cccc(N/C=C/C(=O)c2ccco2)c1
Ki (Carbonic anhydrase 4 [3]): 64.5 nM

Structure (SMILES): N#CCSc1nc2ccccc2c(=O)n1CCc1ccc(S(N)(=O)=O)cc1
Ki (Carbonic anhydrase 9 [1]): 57.8 nM | Ki (Carbonic anhydrase 12 [2]): 57.8 nM

Structure (SMILES): NS(=O)(=O)c1ccc2[nH]c(-c3ccc(Cl)cc3)nc2c1
IC50 (Carbonic anhydrase 1 [8]): > 360 nM | IC50 (Carbonic anhydrase 2 [9]): > 360 nM | IC50 (Carbonic anhydrase 9 [10]): > 360 nM | IC50 (Carbonic anhydrase 12 [11]): > 360 nM

Structure (SMILES): NS(=O)(=O)c1ccc(N/C=C/C(=O)c2ccco2)cc1
Ki (Carbonic anhydrase 9 [1]): 0.21 nM | Ki (Carbonic anhydrase 4 [3]): 6.5 nM

Structure (SMILES): Cn1c(-c2ccccn2)nc2cc(S(N)(=O)=O)ccc21
IC50 (Carbonic anhydrase 1 [8]): > 360 nM | IC50 (Carbonic anhydrase 2 [9]): > 360 nM | IC50 (Carbonic anhydrase 9 [10]): 6.6 nM | IC50 (Carbonic anhydrase 12 [11]): 9.9 nM

Structure (SMILES): COc1ccc(C2CC(c3cccs3)=NN2c2ccc(S(N)(=O)=O)cc2)cc1 (stereo unspecified)
Ki (Carbonic anhydrase 1 [12]): 24.2 nM | Ki (Carbonic anhydrase 2 [13]): 37.3 nM

Structure (SMILES): CCSc1nc2ccccc2c(=O)n1CCc1ccc(S(N)(=O)=O)cc1
Ki (Carbonic anhydrase 9 [1]): 57.8 nM | Ki (Carbonic anhydrase 12 [2]): 57.8 nM

Structure (SMILES): NS(=O)(=O)c1ccc2[nH]c(-c3ccccn3)nc2c1
IC50 (Carbonic anhydrase 1 [8]): > 360 nM | IC50 (Carbonic anhydrase 2 [9]): > 360 nM | IC50 (Carbonic anhydrase 9 [10]): > 360 nM | IC50 (Carbonic anhydrase 12 [11]): > 360 nM

Structure (SMILES): Cn1c(-c2ccc(Cl)cc2)nc2cc(C(N)=O)ccc21
IC50 (Carbonic anhydrase 1 [8]): > 360 nM | IC50 (Carbonic anhydrase 2 [9]): > 360 nM | IC50 (Carbonic anhydrase 9 [10]): > 360 nM | IC50 (Carbonic anhydrase 12 [11]): > 360 nM

Structure (SMILES): NS(=O)(=O)c1ccc(N2N=C(c3cccs3)CC2c2cccs2)cc1 (stereo unspecified)
Ki (Carbonic anhydrase 1 [12]): 24.2 nM | Ki (Carbonic anhydrase 2 [13]): 37.3 nM

Structure (SMILES): [SeH]c1ccc2ccccc2c1
Ki (Carbonic anhydrase 9 [1]): 460 nM | Ki (Carbonic anhydrase 7): 760 nM

Structure (SMILES): COc1ccc(C2CC(c3cccs3)=NN2c2ccc(S(N)(=O)=O)cc2)cc1OC (stereo unspecified)
Ki (Carbonic anhydrase 1 [12]): 24.2 nM | Ki (Carbonic anhydrase 2 [13]): 37.3 nM

Structure (SMILES): NS(=O)(=O)c1ccc(CCn2c(SCc3ccccc3)nc3ccccc3c2=O)cc1
Ki (Carbonic anhydrase 9 [1]): 19.3 nM | Ki (Carbonic anhydrase 12 [2]): 17.2 nM

Structure (SMILES): Cn1c(-c2ccc(Cl)cc2)nc2cc(S(N)(=O)=O)ccc21
IC50 (Carbonic anhydrase 1 [8]): > 360 nM | IC50 (Carbonic anhydrase 2 [9]): > 360 nM | IC50 (Carbonic anhydrase 9 [10]): > 360 nM | IC50 (Carbonic anhydrase 12 [11]): > 360 nM

Structure (SMILES): NS(=O)(=O)c1ccc(C(=O)N/N=C/c2ccc(O)cc2)cc1
Ki (Carbonic anhydrase 9 [1]): 8.5 nM | Ki (Carbonic anhydrase 12 [2]): 8.6 nM

Structure (SMILES): NS(=O)(=O)c1cccc(N/C=C/C(=O)c2ccc(Br)cc2)c1
Ki (Carbonic anhydrase 4 [3]): 6.5 nM

Structure (SMILES): O=C1c2ccccc2C(=O)N1CCCSc1nc2ccccc2c(=O)n1CCc1ccccc1
Ki (Carbonic anhydrase 9 [1]): 19.3 nM | Ki (Carbonic anhydrase 12 [2]): 17.2 nM

Structure (SMILES): NS(=O)(=O)c1ccc(N/C=C/C(=O)c2ccc(Cl)cc2)cc1
Ki (Carbonic anhydrase 9 [1]): 0.21 nM | Ki (Carbonic anhydrase 4 [3]): 6.5 nM

Structure (SMILES): NS(=O)(=O)c1ccc(N2N=C(c3cccs3)CC2c2ccc(C(F)(F)F)cc2)cc1 (stereo unspecified)
Ki (Carbonic anhydrase 1 [12]): 24.2 nM | Ki (Carbonic anhydrase 2 [13]): 37.3 nM

Structure (SMILES): Fc1ccc([SeH])cc1
Ki (Carbonic anhydrase 9 [1]): 180 nM | Ki (Carbonic anhydrase 7): 760 nM

Structure (SMILES): NS(=O)(=O)c1ccc(N2N=C(c3cccs3)CC2c2ccccc2)cc1 (stereo unspecified)
Ki (Carbonic anhydrase 1 [12]): 24.2 nM | Ki (Carbonic anhydrase 2 [13]): 80.6 nM

Structure (SMILES): NS(=O)(=O)c1ccc(CCn2c(SCc3ccc(Cl)cc3)nc3ccccc3c2=O)cc1
Ki (Carbonic anhydrase 9 [1]): 19.3 nM | Ki (Carbonic anhydrase 12 [2]): 17.2 nM

Structure (SMILES): NS(=O)(=O)c1ccc(CCn2c(SCc3ccc(Br)cc3)nc3ccccc3c2=O)cc1
Ki (Carbonic anhydrase 9 [1]): 19.3 nM | Ki (Carbonic anhydrase 12 [2]): 17.2 nM

Continued, values first:

Ki (Carbonic anhydrase 1 [4]): 54.1 nM | Ki (Carbonic anhydrase 2 [5]): 25.9 nM | Ki (Carbonic anhydrase 4 [6]): 317 nM | Ki (Carbonic anhydrase 9 [7]): 46 nM
Structure (SMILES): COC(=O)c1ccc2c(c1)C(=O)N(c1ccc(S(N)(=O)=O)cc1)C2=O

Ki (Carbonic anhydrase 1 [4]): 54.1 nM | Ki (Carbonic anhydrase 2 [5]): 25.9 nM | Ki (Carbonic anhydrase 4 [6]): 317 nM | Ki (Carbonic anhydrase 9 [7]): 54.1 nM
Structure (SMILES): NS(=O)(=O)c1ccc(CCN2C(=O)c3ccc(C(=O)O)cc3C2=O)cc1

Ki (Carbonic anhydrase 1 [4]): > 10000 nM | Ki (Carbonic anhydrase 2 [5]): > 10000 nM | Ki (Carbonic anhydrase 4 [6]): > 10000 nM | Ki (Carbonic anhydrase 9 [7]): > 10000 nM
Structure (SMILES): O=C(O)c1ccc2c(c1)C(=O)N(c1ccccc1)C2=O

Ki (Carbonic anhydrase 1 [4]): > 10000 nM | Ki (Carbonic anhydrase 2 [5]): > 10000 nM | Ki (Carbonic anhydrase 4 [6]): > 10000 nM | Ki (Carbonic anhydrase 9 [7]): > 10000 nM
Structure (SMILES): O=C(O)c1ccc2c(c1)C(=O)N(Cc1ccccc1)C2=O

Ki (Carbonic anhydrase 9 [1]): 8.5 nM | Ki (Carbonic anhydrase 12 [2]): 8.6 nM
Structure (SMILES): NS(=O)(=O)c1ccc(C(=O)N/N=C/c2ccccc2O)cc1

Ki (Carbonic anhydrase 1 [4]): 54.1 nM | Ki (Carbonic anhydrase 2 [5]): 25.9 nM | Ki (Carbonic anhydrase 4 [6]): 317 nM | Ki (Carbonic anhydrase 9 [7]): 54.1 nM
Structure (SMILES): NS(=O)(=O)c1ccc(CN2C(=O)c3ccc(C(=O)O)cc3C2=O)cc1

IC50 (Carbonic anhydrase 1 [8]): > 360 nM | IC50 (Carbonic anhydrase 2 [9]): > 360 nM | IC50 (Carbonic anhydrase 9 [10]): > 360 nM | IC50 (Carbonic anhydrase 12 [11]): > 360 nM
Structure (SMILES): Cn1c(-c2ccccc2)nc2cc(C(=O)O)ccc21

Ki (Carbonic anhydrase 1 [4]): > 10000 nM | Ki (Carbonic anhydrase 2 [5]): > 10000 nM | Ki (Carbonic anhydrase 4 [6]): > 10000 nM | Ki (Carbonic anhydrase 9 [7]): > 10000 nM
Structure (SMILES): COC(=O)c1ccc2c(c1)C(=O)N(c1ccc(C(=O)O)cc1)C2=O

IC50 (Carbonic anhydrase 1 [8]): > 360 nM | IC50 (Carbonic anhydrase 2 [9]): > 360 nM | IC50 (Carbonic anhydrase 9 [10]): > 360 nM | IC50 (Carbonic anhydrase 12 [11]): > 360 nM
Structure (SMILES): Cn1c(-c2ccccc2)nc2cc(C(=O)NO)ccc21

IC50 (Carbonic anhydrase 1 [8]): > 360 nM | IC50 (Carbonic anhydrase 2 [9]): > 360 nM | IC50 (Carbonic anhydrase 9 [10]): > 360 nM | IC50 (Carbonic anhydrase 12 [11]): > 360 nM
Structure (SMILES): Cn1c(-c2ccccc2)nc2cc(S(N)(=O)=O)ccc21

Ki (Carbonic anhydrase 1 [4]): > 10000 nM | Ki (Carbonic anhydrase 2 [5]): > 10000 nM | Ki (Carbonic anhydrase 4 [6]): > 10000 nM | Ki (Carbonic anhydrase 9 [7]): > 10000 nM
Structure (SMILES): COC(=O)c1ccc2c(c1)C(=O)N(c1ccccc1)C2=O

Ki (Carbonic anhydrase 1 [4]): > 10000 nM | Ki (Carbonic anhydrase 2 [5]): > 10000 nM | Ki (Carbonic anhydrase 4 [6]): > 10000 nM | Ki (Carbonic anhydrase 9 [7]): > 10000 nM
Structure (SMILES): O=C(O)c1ccc2c(c1)C(=O)N(CCc1ccccc1)C2=O

Ki (Carbonic anhydrase 1 [4]): 54.1 nM | Ki (Carbonic anhydrase 2 [5]): 25.9 nM | Ki (Carbonic anhydrase 4 [6]): 317 nM | Ki (Carbonic anhydrase 9 [7]): 54.1 nM
Structure (SMILES): NS(=O)(=O)c1ccc(N2C(=O)c3ccc(C(=O)O)cc3C2=O)cc1
